Key:
[1] = target: KDR kinase (Homo sapiens, UniProt P35968); assay: Evaluation of kinase selectivity (KDR kinase IC50 versus Axl IC50, in vitro test); assay type: biochemical; settings: Axl selective inhibitory activity with respect to KDR kinase, ratio of IC50 values
Description: Similar to Biological Example 1, values of 50% inhibition rate (IC50 value) with respect to the KDR kinase of the test compound was measured. The Axl selective inhibitory activity of the test compound with respect to KDR kinase was calculated based on the above-mentioned ratio of the IC50 values. As the test compounds, for the compounds of the present invention, the compounds of Examples 21, 42, 66, and 28 were used, and for the comparative compounds, the compound of Example 74 (Comparative compound B) and the compound of Example 92 (Comparative compound C) described in Patent Literature 5, having the following structure, were used.

[2] = target: T1, Ba/F3 Axl (Homo sapiens, UniProt P30530); assay: Proliferation suppression rate using mouse pro-B cell line (Ba/F3 Axl) stably expressing Axl (CellTiter-Glo); assay type: cell-based; settings: Ba/F3 Axl cells, 48 hours, read-out: IC50 value of proliferation suppression, Ba/F3 Axl
T1 sequence (P30530 1-894): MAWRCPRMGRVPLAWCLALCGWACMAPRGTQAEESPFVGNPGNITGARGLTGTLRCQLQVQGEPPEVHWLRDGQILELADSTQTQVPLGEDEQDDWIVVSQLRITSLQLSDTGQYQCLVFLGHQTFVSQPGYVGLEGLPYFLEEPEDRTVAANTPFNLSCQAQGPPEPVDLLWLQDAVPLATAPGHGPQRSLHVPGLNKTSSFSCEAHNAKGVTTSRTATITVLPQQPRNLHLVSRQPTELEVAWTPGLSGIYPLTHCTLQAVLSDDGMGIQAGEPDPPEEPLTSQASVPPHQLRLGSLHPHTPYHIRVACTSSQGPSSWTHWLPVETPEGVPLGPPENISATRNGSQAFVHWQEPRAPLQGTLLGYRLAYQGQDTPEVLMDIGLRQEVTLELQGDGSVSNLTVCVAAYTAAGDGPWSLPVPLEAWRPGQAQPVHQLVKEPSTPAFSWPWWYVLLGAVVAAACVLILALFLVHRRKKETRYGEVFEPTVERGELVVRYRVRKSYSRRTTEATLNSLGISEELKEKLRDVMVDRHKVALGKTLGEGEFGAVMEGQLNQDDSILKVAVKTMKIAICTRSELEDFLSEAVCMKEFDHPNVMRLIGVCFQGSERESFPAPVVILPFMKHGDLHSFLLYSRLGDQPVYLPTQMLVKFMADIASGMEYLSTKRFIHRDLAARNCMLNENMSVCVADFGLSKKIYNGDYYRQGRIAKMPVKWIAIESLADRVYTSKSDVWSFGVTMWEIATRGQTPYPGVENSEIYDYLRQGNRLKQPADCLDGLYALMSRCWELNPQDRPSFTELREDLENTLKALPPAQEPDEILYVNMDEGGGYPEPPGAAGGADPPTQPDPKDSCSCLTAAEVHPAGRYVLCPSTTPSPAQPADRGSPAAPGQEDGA
Description: A 0.1 mmol/L DMSO solution of the test compound was dispensed into a 96-well plate, and a 3-fold dilution series was prepared using DMSO. DMSO solutions of test compounds, having various concentrations, were further 500-fold diluted with a RPMI1640 medium (containing 10% HI-FBS, 1% penicillin) and a diluted solution of the test compound having […] with respect to the final concentration was prepared. In each well of the 96-well plate (BD Biosciences) for measurement, 50 μL of a RPMI medium was added to the Blank group, 50 μL of a RPMI medium containing 0.2% DMSO was added to the medium group, and 50 μL of the diluted solution of the test compound was added to the test compound group, respectively. Ba/F3 Axl was diluted with a medium to have a density of 2×10^5 cells/mL to prepare a cell suspension. In each well of the 96-well plate for measurement, 50 μL each of the RPMI medium was added to the Blank group, and 50 μL each of the cell suspension to the medium group and the test compound group, respectively, and the groups were stood still at 37° C. at 5% CO2 for 48 hours. After standing still, Relative Light Unit (RLU) was measured by using CELLTITER-GLO (registered trademark) LUMINESCENT CELL VIABILITY ASSAY (Promega). The measurement was carried out according to the attached instruction. To each well, 100 μL each of light-emitting solution was added. The plate was stirred at room temperature for 3 min and then stool still at room temperature with light shielded for 10 min, and RLU was measured by using Microplate Reader (SpectraMax M5e, Molecular Devices). The average values of RLU of the Blank group and the medium group were respectively calculated, and the proliferation suppression rate of the test compound group was calculated. Proliferation suppression rate (%)={1−(RLU of test compound group−A)/(B−A)}×100 [Math. 2] A: average value of RLU of Blank group B: average value of RLU of medium group
A value of 50% inhibition rate (IC50 value) of the test compound was calculated from the inhibition curve based on the inhibition rate in each concentration of the test compound.

[3] = target: T2, Axl enzyme (Homo sapiens, UniProt P30530); assay: Measurement of Axl inhibitory activity (LanthaScreen TR-FRET, in vitro test); assay type: biochemical; settings: Fluorescein-Poly GT substrate
T2 sequence (P30530 26-894): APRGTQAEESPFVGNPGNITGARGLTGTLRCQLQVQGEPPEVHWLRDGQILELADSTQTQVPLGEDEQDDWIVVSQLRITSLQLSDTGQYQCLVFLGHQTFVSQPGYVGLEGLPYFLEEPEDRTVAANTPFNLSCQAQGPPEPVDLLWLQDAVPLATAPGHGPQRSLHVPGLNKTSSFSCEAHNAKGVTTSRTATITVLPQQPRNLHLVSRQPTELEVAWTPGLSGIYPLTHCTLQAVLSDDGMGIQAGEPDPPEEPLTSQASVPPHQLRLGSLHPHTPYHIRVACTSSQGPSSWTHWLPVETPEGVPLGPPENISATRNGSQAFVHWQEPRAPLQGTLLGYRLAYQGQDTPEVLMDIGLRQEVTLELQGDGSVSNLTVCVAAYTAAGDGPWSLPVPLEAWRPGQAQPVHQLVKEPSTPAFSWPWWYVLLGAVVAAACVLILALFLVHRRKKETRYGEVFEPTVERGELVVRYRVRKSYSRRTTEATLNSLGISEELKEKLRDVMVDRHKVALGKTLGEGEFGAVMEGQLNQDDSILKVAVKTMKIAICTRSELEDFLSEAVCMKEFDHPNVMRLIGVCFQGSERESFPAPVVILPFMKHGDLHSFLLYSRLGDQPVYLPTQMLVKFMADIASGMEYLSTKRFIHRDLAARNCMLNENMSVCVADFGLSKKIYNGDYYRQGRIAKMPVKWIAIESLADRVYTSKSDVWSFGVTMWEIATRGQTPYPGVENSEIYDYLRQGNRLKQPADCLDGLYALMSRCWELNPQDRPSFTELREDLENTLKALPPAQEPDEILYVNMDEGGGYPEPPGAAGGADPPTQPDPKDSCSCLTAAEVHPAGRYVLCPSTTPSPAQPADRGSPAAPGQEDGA
Description: Axl enzyme inhibitory activity was measured by using LanthaScreen (registered trademark) system (Invitrogen) based on the attached instruction. The reagents used are shown below.
Reaction buffer solution: a solution containing 50 mmol/L HEPES (pH7.5), 0.01% Brij35, 10 mmol/L MgCl2 and 1 mmol/L EGTA was prepared by using purified water.
Test substance solution: a solution containing a test compound of 5-fold concentration with respect to the final concentration was prepared by 20-fold diluting a DMSO solution of test compound of each concentration with the reaction buffer solution.
Enzyme solution: a solution containing 400 ng/mL Axl enzyme was prepared by using the reaction buffer solution.
Substrate solution: a solution containing 45 μmol/L ATP and 500 nmol/L Fluorescein-Poly GT (Invitrogen) was prepared by using the reaction buffer solution.
Detection solution: a solution containing 20 mM EDTA and 4 nM PY20 (Invitrogen) was prepared by using Dilution B (Invitrogen).
A 10 mmol/L DMSO solution of the test compound was dispensed into a 96-well plate (Nunc), and, furthermore, a 3-fold dilution series was prepared using DMSO. In each well of the 96-well plate for measurement, 5 μL each of the reaction buffer solution containing DMSO was added to a Blank group and a medium group, and 5 μL of the test substance solution was added to the test substance group, respectively. Next, 10 μL/well of the reaction buffer solution was added to the Blank group, and 10 μL/well each of the enzyme solution was added to the medium group and the test compound group, followed by stirring at room temperature for 10 min. After the completion of stirring, 10 μL each of the substrate solution was added into each well, followed by stirring at room temperature with light shielded for one hour. After the completion of reaction, 25 μL each of the detection solution was added to each well, and stood still at room temperature with light shielded for 30 min. After standing sill, fluorescence intensity at 520 nm and 495 nm at the time of irradiation with exciting light of 340 nm was measured by using Analyst GT (Molecular Devices). The phosphorylation of the artificial substrate was quantified by Time-resolved Fluorescence Resonance Energy Transfer (TR-FRET). TR-FRET ratio was calculated by dividing 520 nm fluorescence signal by 495 nm fluorescence signal for each well, and the inhibition rate (%) in the test compound group was calculated based on the following mathematical formula. Inhibition rate (%)=[1−(TR-FRET ratio of test compound group−A)/(B−A)×100 [Math. 1] A: average value of TR-FRET ratios of Blank group B: average value of TR-FRET ratios of medium group
Values of 50% inhibition rate (IC50 values) of the test compound were calculated from the inhibition curve based on the inhibition rate of the test compounds in each concentration.

KDR kinase, sequence (P35968 20-1356): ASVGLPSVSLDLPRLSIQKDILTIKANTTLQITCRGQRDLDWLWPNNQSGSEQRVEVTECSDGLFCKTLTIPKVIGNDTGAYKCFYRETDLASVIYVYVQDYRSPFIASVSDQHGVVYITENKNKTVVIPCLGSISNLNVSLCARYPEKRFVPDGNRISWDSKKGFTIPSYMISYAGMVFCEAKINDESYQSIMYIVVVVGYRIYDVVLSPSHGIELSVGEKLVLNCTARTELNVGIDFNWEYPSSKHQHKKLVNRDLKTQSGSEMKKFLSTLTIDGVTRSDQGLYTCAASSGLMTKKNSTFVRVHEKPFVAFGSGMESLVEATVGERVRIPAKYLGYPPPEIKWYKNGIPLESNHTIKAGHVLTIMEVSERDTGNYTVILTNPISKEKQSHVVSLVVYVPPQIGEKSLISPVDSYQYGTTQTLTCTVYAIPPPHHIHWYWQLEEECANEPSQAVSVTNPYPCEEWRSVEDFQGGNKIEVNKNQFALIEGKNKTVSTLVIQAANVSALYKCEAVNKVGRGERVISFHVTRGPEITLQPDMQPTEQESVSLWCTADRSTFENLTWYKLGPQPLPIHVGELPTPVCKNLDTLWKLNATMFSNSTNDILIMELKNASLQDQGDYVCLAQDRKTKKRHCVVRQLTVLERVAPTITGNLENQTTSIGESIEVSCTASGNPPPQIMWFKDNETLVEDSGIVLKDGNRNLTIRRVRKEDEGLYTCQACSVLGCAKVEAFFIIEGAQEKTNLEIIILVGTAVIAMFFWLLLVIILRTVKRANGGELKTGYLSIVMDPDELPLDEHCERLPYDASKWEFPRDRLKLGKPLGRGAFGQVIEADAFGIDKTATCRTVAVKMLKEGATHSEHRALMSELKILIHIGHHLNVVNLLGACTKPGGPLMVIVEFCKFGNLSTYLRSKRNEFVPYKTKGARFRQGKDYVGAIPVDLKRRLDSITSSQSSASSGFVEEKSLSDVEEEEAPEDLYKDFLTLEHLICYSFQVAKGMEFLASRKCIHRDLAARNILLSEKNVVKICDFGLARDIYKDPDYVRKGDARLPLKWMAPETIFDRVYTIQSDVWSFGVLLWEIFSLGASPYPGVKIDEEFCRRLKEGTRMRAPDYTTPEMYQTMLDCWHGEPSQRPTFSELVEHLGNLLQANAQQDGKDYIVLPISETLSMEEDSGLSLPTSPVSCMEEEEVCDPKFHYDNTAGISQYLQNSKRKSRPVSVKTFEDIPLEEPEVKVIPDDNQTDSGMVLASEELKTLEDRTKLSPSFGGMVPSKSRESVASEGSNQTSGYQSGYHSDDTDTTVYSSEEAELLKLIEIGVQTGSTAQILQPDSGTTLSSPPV

| SMILES | KDR [IC50]/Ax1 [IC50] [1] | GI50 [2] | IC50 [3] |
| --- | --- | --- | --- |
| COc1cc2c(Oc3ccc(NC(=O)c4ccnn(-c5ccc(F)cc5)c4=O)cn3)ccnc2cc1OCCCN1CCOCC1 [Comparative compound C, reference compound] | about 28 times |  |  |
| COc1cc2nccc(Oc3ccc(NC(=O)c4cc5ccccc5[nH]c4=O)cc3)c2cc1OC [Comparative compound A, reference compound] |  | > 10000 nM | > 10000 nM |
| COc1cc2c(Oc3ccc(NC(=O)c4cccc5cccnc45)cc3F)ccnc2cc1OCCCN1CCOCC1 [Comparative compound B, reference compound] | about 0.2 times |  |  |
| CC#CC(=O)N1CCc2cc(C(=O)Nc3ccc(Oc4ccnc5cc(OC)c(OC)cc45)cn3)c(=O)n(-c3ccccc3)c2C1 [Example 36, 7-(2-butynoyl)-N-{5-[(6,7-dimethoxy-4-quinolinyl)oxy]-2-pyridinyl}-2-oxo-1-phenyl-1,2,5,6,7,8-hexahydro-1,7-naphthyridine-3-carboxamide] |  | 0.47 nM | 1.5 nM |
| COc1cc2nccc(Oc3ccc(NC(=O)c4cc5ccc(N)cc5n(-c5ccccc5)c4=O)nc3)c2cc1OC [Example 73, 7-amino-N-{5-[(6,7-dimethoxy-4-quinolinyl)oxy]-2-pyridinyl}-2-oxo-1-phenyl-1,2-dihydro-3-quinolinecarboxamide] |  | 0.76 nM | 4 nM |

Source: US10208034B2, “Quinoline derivative” (ONO PHARMACEUTICAL CO., LTD., priority 2014, dated 2019)
